Experimental data: patent US20260097091A1, “ADMINISTRATION OF GLUTATHIONE TRISULFIDE TO AMELIORATE PERIPHERAL NEUROPATHY” (The General Hospital Corporation, priority 2022, published 2026)

Experiments:
[1] = tested on: primary cortical neurons; assay: Dihydroethidium (DHE) superoxide assay in primary cortical neurons; assay type: cell-based, mice
Experimental: Primary cortical neurons were prepared from the cortex of mice on embryonic day 15, as described previously. In brief, the embryo's cortex was isolated in Hanks' balanced salt solution and centrifuged at 176×g (1000 rpm) for 3 minutes. After aspirating the solution, cells were incubated with 0.25% trypsin for 15 minutes and seeded 20,000/well in a 96-well plate coated with the poly-D-lysin (Gibco, Cat No. A3890401). They were incubated in Neurobasal medium (Gibco, Cat No. 21103049) with 2% B27 supplement (Gibco, Cat No. 10889038), 1% penicillin/streptomycin, and 1% Glutamax (Gibco, Cat No. 35050061) until day 11 when they were used for experiments.
To examine whether GSSSG reduces ROS generated by paclitaxel, we conducted Dihydroethidium (DHE) assay (Abcam, Cat No. ab236206) that is sensitive to superoxide. The experiment was done according to protocol provided by the manufacturer. Briefly, primary cortical neurons were incubated in DHE reagent with or without 10 and 30 μM of GSSSG for 30 minutes. After incubating, 100 nM of paclitaxel was administered, and cells were incubated for one hour. Fluorescence of DHE was measured at 490 nm of excitation and 585 nm of emission wavelength.

[2] = tissue distribution of orally administered ^34S-labeled GSSSG by LC-MS/MS; assay type: in vivo, mice; settings: 2 hours after oral ^34S-labelled GSSSG 50 mg/kg; mice
Experimental: To determine the tissue distribution of orally-administered GSSSG, ^34S-labelled GSSSG was administered by gavage to each of four mice. ^34S-labelled GSSSG was synthesized and provided by Kyowa Hakko Bio CO., LTD. Two hours after a single dose of ^34S-GSSSG, DRG, lumber spinal cord, brain, liver, and plasma were obtained and snap frozen for later analysis.
We examined whether administrated GSSSG via oral gavage reaches peripheral nervous system using liquid chromatography with tandem mass spectrometry (LC-MS/MS). Fifty mg/kg of ^34S-labeled GSSSG (in which the middle sulfur, that is a sulfane sulfur, was replaced to ^34S; G-^32S-^34S-^32S-G) was orally administered to mice. Two hours after administration, plasma and tissue from liver, brain, lumbar spinal cord, and lumbar DRG (L1 to L6) were collected and immediately frozen at −80° C. Tissues were homogenized with 5 mM of β-(4-hydroxyphenyl)ethyl iodoacetamide (HPE-IAM) (Santa Cruz, Cat No. SC-473766) and incubated for 20 minutes at 37° C. to promote HPE-IAM reaction that stabilizes persulfide residues. Proteins were removed by centrifugation at 15,000 g for 10 minutes at 4° C., and total protein concentration was measured by BCA assay. The supernatant was diluted by 0.1% formic acid for LC-MS/MS analysis. The amount of ^34S-labeled GSSSG was quantified in selective reaction monitoring (SRM) with precursor ion (647.14 m/z), product ion (389.1 m/z), and HCD (21 v) and normalized by protein concentration. The ratio of ^34S-labeled reactive sulfur species to endogenous (^32S) reactive sulfur species (GSSH, CysSSH, and CysSSSCys) were also calculated from their peak area measured by Dionex UltiMate 3000 RS UPLC-Orbitrap Exploris 480 mass spectrometer (Thermo Scientific Scientific, Waltham, MA, USA). In brief, samples were subjected to the UPLC system with a Hypersil Gold C-18 (100×2.1 mm, 3.0 μm, Thermo Fisher Scientific) column and they were eluted by using a linear methanol gradient of the mobile phase (0-90%, 15 minutes) in the presence of 0.1% formic acid at a flow rate of 0.2 ml/minutes at 40 degrees. The raw data were obtained by Compound Discoverer software 3.3. Molecular weight of reactive sulfur species combined with HPE-IAM were reported in previous studies.

[3] = tested on: sciatic nerve; assay: transmission electron microscopy of sciatic nerve (unmyelinated neurons, mitochondria); assay type: in vivo, mice (C57BL/6J); settings: for median area of mitochondria in unmyelinated neuron: sciatic nerve at 4 weeks, control 0.036
Experimental: Paclitaxel (Sigma-Aldrich) was dissolved with ethanol and cremophor (1:1) and diluted with normal saline (1:4). Peripheral neuropathy was induced in mice by intraperitoneal (i.p.) administration of 4 mg/kg paclitaxel every other day for a total of 4 injections (cumulative dose of 16 mg/kg), according to a previously described protocol. A stable, crystallized form of GSSSG was produced and provided by Kyowa Hakko Bio CO., LTD. GSSSG was pulverized and mixed in 0.5% methylcellulose. To evaluate the therapeutic effects of GSSSG in a model of PIPN, mice were randomly divided into three groups of 6. Mice were treated with: 1) paclitaxel alone; 2) paclitaxel and GSSSG; 3) or vehicle alone (control). Mice in groups 1 and 2 received paclitaxel as described above, while mice in the control group received the same volume of vehicle. The first dose of GSSSG was given within 1 hour after the first PTX injection. Treatment was administered as oral gavage for 28 days with GSSSG at 50 mg/kg/day (group 2) or 0.5% methylcellulose (groups 1 and 3). The dose of GSSSG was determined based on pilot studies. To determine the effect of GSSSG on the development of PIPN, behavioral tests to assess allodynia and hyperalgesia were conducted on all mice on days-1 (baseline), 7, 14, 21, and 28 after paclitaxel administration. Behavioral tests were performed by an investigator who was blinded to the treatment groups, as described in the next section. To evaluate unmyelinated neurons and mitochondria, we examined neurons in sciatic nerve by a transmission electron microscope. Resin-embedded nerve blocks using the same method above were sectioned at 50 nm by an ultramicrotome. Sections were examined with an FEI Morgagni transmission electron microscope. Low (×2200) and high (×11000) magnification of images were captured with an AMT 2K charge-coupled device camera (Advanced Microscopy Techniques, Woburn, MA, USA). Unmyelinated neurons were quantified in 9 low magnified images per group (3 mice per group). The percentage of unmyelinated neurons was calculated by dividing unmyelinated neurons by the total number of neurons. The cross-sectional area of mitochondria (μm^2) in unmyelinated neurons was quantified in 18 to 20 high magnified images per group (3 mice per group). In total, 80 to 100 mitochondrion per group were evaluated. Quantification was conducted by a blinded examiner, and the images were evaluated by a pathologist (A S-R) blinded to the identity of samples.

[4] = tested on: primary cortical neurons; assay: axonal degeneration in primary cortical neurons; assay type: cell-based, mice; settings: 10 μM of GSSSG
[5] = paclitaxel alone, 4 weeks, vs control mice

Row | plasma level of GSSSG [2] [nM] | intracellular levels of superoxide (DHE) ([1]; 100 nM paclitaxel for one hour, vs control) | median area of mitochondria in unmyelinated neuron ([3]; paclitaxel alone) [μm^2] | Structure (SMILES) | paclitaxel-induced increase of intracellular superoxide (DHE) ([1]; 10 μM GSSSG co-incubation with 100 nM paclitaxel, vs paclitaxel) | mitochondrial swelling in axons of unmyelinated neurons ([3]; paclitaxel and GSSSG 50 mg/kg/day oral, 4 weeks) | ratio of unmyelinated neurons to total neurons in sciatic nerve ([3]; paclitaxel and GSSSG 50 mg/kg/day oral, 4 weeks, vs paclitaxel alone) | median area of mitochondria in unmyelinated neuron ([3]; paclitaxel with GSSSG 50 mg/kg/day oral) [μm^2] | axonal degeneration in primary cortical neurons [4] | cross-sectional area of mitochondria in unmyelinated sciatic neurons [3, 5] | ratio of unmyelinated neurons to total neurons in sciatic nerve [3, 5]
1 | 58 | – | – | N[C@@H](CCC(=O)N[C@@H](CSSSC[C@H](NC(=O)CC[C@H](N)C(=O)O)C(=O)NCC(=O)O)C(=O)NCC(=O)O)C(=O)O [GSSSG, glutathione trisulfide] | prevented the paclitaxel-induced increase of intracellular superoxide | Prevented Mitochondrial Swelling | larger ratio of unmyelinated neurons | 0.041 | prevented axonal degeneration | – | –
2 | – | increased | 0.057 | CC(=O)O[C@H]1C(=O)[C@@]2(C)[C@H]([C@H](OC(=O)c3ccccc3)[C@]3(O)C[C@H](OC(=O)[C@H](O)[C@@H](NC(=O)c4ccccc4)c4ccccc4)C(C)=C1C3(C)C)[C@]1(OC(C)=O)CO[C@@H]1C[C@@H]2O [paclitaxel, Paclitaxel, reference compound] | – | – | – | – | – | significantly larger than those in control mice | tended to decrease unmyelinated neurons compared to control mice
